Results: paper PMC6979384, “Characterization of the plant homeodomain (PHD) reader family for their histone tail interactions” (Epigenetics & Chromatin, 2020)
Where no end group is shown, it is not given here. [ ]: non-standard residue; d: D form. Arg(Me2a) = CN(C)C(=N)NCCC[C@H](N)C(=O)O; pS = N[C@@H](COP(=O)(O)O)C(=O)O

Legend:
Assay in all cases: Histone peptide microarray
Format in all cases: binding, human
AIRE (PP) = conditions: AIRE (PP), GST-tagged; arrays performed twice, n of 4
Text: (§1) To more comprehensively define the histone interactions of the 31 PHD readers identified from the domain microarray analyses, we probed each on an alternate microarray platform containing a library of 293 synthetic histone peptides with single or combinatorial PTMs (Additional file 2: Figure S4 and Additional file 3: Table S2).
(§2) The 31 GST-tagged PHD readers identified in the PHD finger domain array were expressed and purified as previously. Histone peptide arrays and peptide pulldown assays were conducted as recently described (specifically, the optimized protocol from Petell et al. for the former).
(§3) Supplementary file 13072_2020_328_MOESM3_ESM.xlsx: Additional file 3: Table S2. […] Excel Tab Peptide List is a compiled list of the entire 293 histone peptide library with amino acid sequence ranges. […] Each number corresponds to the peptide number designated in Peptide List. Excel Tab Average Signals is a compiled set of binding data: chromatin reader at 0.5 μM vs. entire 293 peptide library. Data is presented as the average and standard deviation of 4 replicates. The average signals are colored to indicate signal intensity with green being strong and white being weak/low. […] Key: red= stronger relative binding; blue = weaker relative binding. Excel Tab Array info summary is a table summarizing the domains, sequence coverage, array signal range, and noise for each of the GST-tagged readers assayed on the peptide microarrays.

BAZ2B = conditions: BAZ2B, GST-tagged; arrays performed twice, n of 4
Text: as §1, §2, §3

BPTF (PB) = conditions: BPTF (PB), GST-tagged; arrays performed twice, n of 4
Text: as §1, §2, §3

CHD4 (PPCC) = conditions: CHD4 (PPCC), GST-tagged; arrays performed twice, n of 4
Text: as §1, §2, §3

CHD5 (PCC) = conditions: CHD5 (PCC), GST-tagged; arrays performed twice, n of 4
Text: as §1, §2, §3

CHD5 (PPCC) = conditions: CHD5 (PPCC), GST-tagged; arrays performed twice, n of 4
Text: as §1, §2, §3

DIDO1 = conditions: DIDO1, GST-tagged; arrays performed twice, n of 4
Text: as §1, §2, §3

DPF2 (PPC2W2) = conditions: DPF2 (PPC2W2), GST-tagged; arrays performed twice, n of 4
Text: as §1, §2, §3

ING1 = conditions: ING1, GST-tagged; arrays performed twice, n of 4
Text: as §1, §2, §3

ING2 = conditions: ING2, GST-tagged; arrays performed twice, n of 4
Text: as §1, §2, §3

ING3 = conditions: ING3, GST-tagged; arrays performed twice, n of 4
Text: as §1, §2, §3

ING4 = conditions: ING4, GST-tagged; arrays performed twice, n of 4
Text: as §1, §2, §3

ING5 = conditions: ING5, GST-tagged; arrays performed twice, n of 4
Text: as §1, §2, §3

KDM4C (TTP) = conditions: KDM4C (TTP), GST-tagged; arrays performed twice, n of 4
Text: as §1, §2, §3

KDM5A (1) = conditions: KDM5A (1), GST-tagged; arrays performed twice, n of 4
Text: as §1, §2, §3

KDM5A (3) = conditions: KDM5A (3), GST-tagged; arrays performed twice, n of 4
Text: as §1, §2, §3

KDM5B (1) = conditions: KDM5B (1), GST-tagged; arrays performed twice, n of 4
Text: as §1, §2, §3

KDM5B (3) = conditions: KDM5B (3), GST-tagged; arrays performed twice, n of 4
Text: as §1, §2, §3

KDM7A = conditions: KDM7A, GST-tagged; arrays performed twice, n of 4
Text: as §1, §2, §3

MLL5 = conditions: MLL5, GST-tagged; arrays performed twice, n of 4
Text: as §1, §2, §3

MORC3 (CW) = conditions: MORC3 (CW), GST-tagged; arrays performed twice, n of 4
Text: as §1, §2, §3

PHF13 = conditions: PHF13, GST-tagged; arrays performed twice, n of 4
Text: as §1, §2, §3

PHF21A = conditions: PHF21A, GST-tagged; arrays performed twice, n of 4
Text: as §1, §2, §3

PHF23 = conditions: PHF23, GST-tagged; arrays performed twice, n of 4
Text: as §1, §2, §3

PHF2 = conditions: PHF2, GST-tagged; arrays performed twice, n of 4
Text: as §1, §2, §3

PHF8 = conditions: PHF8, GST-tagged; arrays performed twice, n of 4
Text: as §1, §2, §3

PHRF1 (RP) = conditions: PHRF1 (RP), GST-tagged; arrays performed twice, n of 4
Text: as §1, §2, §3

RAG2 = conditions: RAG2, GST-tagged; arrays performed twice, n of 4
Text: as §1, §2, §3

SP140L = conditions: SP140L, GST-tagged; arrays performed twice, n of 4
Text: as §1, §2, §3

TAF3 = conditions: TAF3, GST-tagged; arrays performed twice, n of 4
Text: as §1, §2, §3

TRIM66 (PB) = conditions: TRIM66 (PB), GST-tagged; arrays performed twice, n of 4
Text: as §1, §2, §3

Substance | Array Heatmap value (peptide array binding signal) (AIRE (PP)) | Array Heatmap value (peptide array binding signal) (BAZ2B) | Array Heatmap value (peptide array binding signal) (BPTF (PB)) | Array Heatmap value (peptide array binding signal) (CHD4 (PPCC)) | Array Heatmap value (peptide array binding signal) (CHD5 (PCC)) | Array Heatmap value (peptide array binding signal) (CHD5 (PPCC)) | Array Heatmap value (peptide array binding signal) (DIDO1) | Array Heatmap value (peptide array binding signal) (DPF2 (PPC2W2)) | Array Heatmap value (peptide array binding signal) (ING1) | Array Heatmap value (peptide array binding signal) (ING2) | Array Heatmap value (peptide array binding signal) (ING3) | Array Heatmap value (peptide array binding signal) (ING4) | Array Heatmap value (peptide array binding signal) (ING5) | Array Heatmap value (peptide array binding signal) (KDM4C (TTP)) | Array Heatmap value (peptide array binding signal) (KDM5A (1)) | Array Heatmap value (peptide array binding signal) (KDM5A (3)) | Array Heatmap value (peptide array binding signal) (KDM5B (1)) | Array Heatmap value (peptide array binding signal) (KDM5B (3)) | Array Heatmap value (peptide array binding signal) (KDM7A) | Array Heatmap value (peptide array binding signal) (MLL5) | further results
H2AS1p + R3me2a + K5ac: H2A 1-17 ([pS]G[Arg(Me2a)]GK(Ac)QGGKARAKAKTR; UniProt P0C0S8 2-18, looked up, fragment) | 0.4865 | 0.5108 | 0.3885 | 0.5877 | 0.8457 | 0.6207 | 0.7538 | 0.758 | 0.5672 | 0.6108 | 0.5376 | 0.4949 | 0.4136 | 0.5547 | 0.5224 | 0.5245 | 0.7084 | 0.5099 | 0.4163 | 0.5765 | Array Heatmap value (peptide array binding signal) (MORC3 (CW)): 0.4152; Array Heatmap value (peptide array binding signal) (PHF13): 0.6406; Array Heatmap value (peptide array binding signal) (PHF21A): 0.4866; Array Heatmap value (peptide array binding signal) (PHF23): 0.5991; Array Heatmap value (peptide array binding signal) (PHF2): 0.5212; Array Heatmap value (peptide array binding signal) (PHF8): 0.3894; Array Heatmap value (peptide array binding signal) (PHRF1 (RP)): 0.5154; Array Heatmap value (peptide array binding signal) (RAG2): 0.2825; Array Heatmap value (peptide array binding signal) (SP140L): 0.3795; Array Heatmap value (peptide array binding signal) (TAF3): 0.2891; Array Heatmap value (peptide array binding signal) (TRIM66 (PB)): 0.6131
H2AX (132-142): H2AX 132-142 (GKKATQASQEY; UniProt P16104 133-143, looked up, fragment) | 0.4547 | 0.4423 | 0.3256 | 0.5518 | 0.733 | 0.5152 | 0.7308 | 0.6502 | 0.536 | 0.621 | 0.4477 | 0.4334 | 0.3322 | 0.4463 | 0.4587 | 0.478 | 0.6162 | 0.4637 | 0.3262 | 0.533 | Array Heatmap value (peptide array binding signal) (MORC3 (CW)): 0.4162; Array Heatmap value (peptide array binding signal) (PHF13): 0.5577; Array Heatmap value (peptide array binding signal) (PHF21A): 0.4468; Array Heatmap value (peptide array binding signal) (PHF23): 0.5369; Array Heatmap value (peptide array binding signal) (PHF2): 0.5225; Array Heatmap value (peptide array binding signal) (PHF8): 0.3348; Array Heatmap value (peptide array binding signal) (PHRF1 (RP)): 0.3943; Array Heatmap value (peptide array binding signal) (RAG2): 0.2674; Array Heatmap value (peptide array binding signal) (SP140L): 0.3692; Array Heatmap value (peptide array binding signal) (TAF3): 0.2878; Array Heatmap value (peptide array binding signal) (TRIM66 (PB)): 0.5363
